In patent US8450313B2, “2,3-diaryl- or heteroaryl-substituted 1,1,1-trifluoro-2-hydroxypropyl compounds” (Hoffmann-La Roche Inc., priority 2009, dated 2013) one finds Ki data, which are given here for 17 compounds.

Molecules are shown by their SMILES.

In this assay the target is T1, full length human recombinant glucocorticoid receptor (Homo sapiens, UniProt P04150).
T1 construct: It contains some partially purified full length human recombinant glucocorticoid receptor; purchased Panvera/Invitrogen PV4302
T1 sequence (P04150 1-777): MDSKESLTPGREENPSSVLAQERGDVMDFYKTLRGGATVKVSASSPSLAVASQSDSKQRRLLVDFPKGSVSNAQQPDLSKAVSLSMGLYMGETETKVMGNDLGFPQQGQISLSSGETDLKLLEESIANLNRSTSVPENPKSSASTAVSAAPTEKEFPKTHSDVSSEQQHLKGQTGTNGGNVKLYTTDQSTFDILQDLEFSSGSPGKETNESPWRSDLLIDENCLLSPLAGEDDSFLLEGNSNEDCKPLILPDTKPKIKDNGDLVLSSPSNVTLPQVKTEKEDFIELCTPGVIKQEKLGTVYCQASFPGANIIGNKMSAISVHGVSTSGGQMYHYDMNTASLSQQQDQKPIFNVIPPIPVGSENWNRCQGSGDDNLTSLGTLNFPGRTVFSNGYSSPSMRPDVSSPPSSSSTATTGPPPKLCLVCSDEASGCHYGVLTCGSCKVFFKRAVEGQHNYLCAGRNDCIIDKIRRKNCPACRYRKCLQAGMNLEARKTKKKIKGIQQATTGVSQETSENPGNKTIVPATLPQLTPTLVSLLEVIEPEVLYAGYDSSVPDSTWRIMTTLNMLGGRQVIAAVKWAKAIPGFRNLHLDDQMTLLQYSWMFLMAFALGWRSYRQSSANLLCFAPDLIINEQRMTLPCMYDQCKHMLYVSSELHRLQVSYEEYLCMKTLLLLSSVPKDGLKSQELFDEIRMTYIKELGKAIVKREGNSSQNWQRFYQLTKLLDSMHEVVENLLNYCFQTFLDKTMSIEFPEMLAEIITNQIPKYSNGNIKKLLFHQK
In words: Glucocorticoid Receptor Binding Assay (Glucocorticoid Receptor Competitor Assay far red kit, fluorescence polarization). To be noted: competition with fluorescent GR ligand Fluormone GS Far Red, 3 hours at 22° C., pH 7.4; Ki calculated from IC50 by Cheng-Prusoff. The protocol:
Glucocorticoid Receptor Binding Assay
The ability of the substances to bind to the glucocorticoid receptor was determined with the help of a commercial Glucocorticoid Receptor Competitor Assay far red kit provided by Panvera/Invitrogen (PV4302). This kit is used as provided by the supplier. It contains some partially purified full length human recombinant glucocorticoid receptor, a coactivator related GR stabilizing peptide, a tight-binding fluorescent GR ligand Fluormone™ GS Far Red as labeled tracer and a screening buffer. All reagents are prepared and the assay is run according to the recommendations of the kit manufacturer.
Briefly, the GR stabilizing peptide and the human recombinant glucocorticoid receptor are both diluted with the screening buffer (pH 7.4) and are gently mixed (no vortexing) just before the assay and kept on ice until use. The fluorescent-labeled ligand is also diluted with the screening buffer just before the assay and kept on ice until use. The substances to test are pre-diluted in pure DMSO then some water is added to get an intermediate 4.2% DMSO stock solution. Ten microliter of the intermediate stock solution is gently mixed with 5 μA of diluted fluorescent-labeled ligand and 5 μl of diluted human recombinant glucocorticoid receptor in a 384-well plate (low volume, ultraclear, glass plate from Greiner ref 788896). The plate is centrifuged, sealed and incubated for 3 hours at 22° C. in the dark. The polarized fluorescence is measured with a Zeiss-HTS reader or any equivalent equipment (610-660 nm).
All compounds were tested to determine IC50 in a serial dilution experiment. The concentration at which 50% inhibition of the fluorescent GR ligand Fluormone™ GS Far Red is obtained (the IC50) is determined after fitting with a sigmoidal dose-response model of a plot of the logarithm of the concentration versus percent inhibition measured for the different concentrations. Ki's were calculated from IC50 based on Cheng-Prusoff equation (Cheng, Y, Prusoff, W H (1973) Biochem Pharmacol 22, 3099-3108): Ki=IC50/[1+D/Kd] wherein D is the concentration of the fluorescent ligand and Kd is the binding constant for the fluorescent ligand binding to the receptor under the conditions used in the competition experiment.

A word on the Ki: it is the dissociation constant of the complex between target and ligand, obtained from inhibition or displacement. As for `COC(=O)c1cnc(Oc2ccc([C@@H](C)[C@@](O)(c3ccc4c(c3)N(C)C(=O)CO4)C(F)(F)F)c(Cl)c2)cn1` (racemic) [Example 227, 5-{3-Chloro-4-[3,3,3-trifluoro-2-hydroxy-1-methyl-2-(4-methyl-3-oxo-3,4-dihydro-2H-benzo[1,4]oxazin-6-yl)-propyl]-phenoxy}-pyrazine-2-carboxylic acid methyl ester], the Ki was 3 nM. With `C[C@H](c1ccc(Oc2cnc(C(=O)O)cn2)cc1Cl)[C@@](O)(c1ccc2c(c1)N(C)C(=O)CO2)C(F)(F)F` (racemic) [Example 228, 5-{3-Chloro-4-[3,3,3-trifluoro-2-hydroxy-1-methyl-2-(4-methyl-3-oxo-3,4-dihydro-2H-benzo[1,4]oxazin-6-yl)-propyl]-phenoxy}-pyrazine-2-carboxylic acid], the Ki was 10.6 nM. Consider `C[C@@H](c1cc(OCc2ccc(C(=O)O)cc2)ccc1Cl)[C@](O)(c1ccc2c(c1)N(C)C(=O)CO2)C(F)(F)F` (relative stereo) [Example 2, 4-{4-Chloro-3-[3,3,3-trifluoro-2-hydroxy-1-methyl-2-(4-methyl-3-oxo-3,4-dihydro-2H-benzo[1,4]oxazin-6-yl)-propyl]-phenoxymethyl}-benzoic acid], for which the Ki is 2 nM. `C[C@@H](c1cc(OCC(=O)O)ccc1Cl)[C@](O)(c1ccc2c(c1)N(C)C(=O)CO2)C(F)(F)F` (relative stereo) [Example 4, {4-Chloro-3-[3,3,3-trifluoro-2-hydroxy-1-methyl-2-(4-methyl-3-oxo-3,4-dihydro-2H-benzo[1,4]oxazin-6-yl)-propyl]-phenoxy}-acetic acid]: the Ki was 426 nM.

Take `CCOC(=O)c1cccc(Oc2ccc(Cl)c([C@H](C)[C@](O)(c3ccc4c(c3)N(C)C(=O)CO4)C(F)(F)F)c2)c1` (relative stereo) [Example 5, 3-{4-Chloro-3-[3,3,3-trifluoro-2-hydroxy-1-methyl-2-(4-methyl-3-oxo-3,4-dihydro-2H-benzo[1,4]oxazin-6-yl)-propyl]-phenoxy}-benzoic acid ethyl ester]: the Ki was 7.5 nM. With `COC(=O)c1ccc(Oc2ccc(Cl)c([C@H](C)[C@](O)(c3ccc4c(c3)N(C)C(=O)CO4)C(F)(F)F)c2)cc1` (relative stereo) [Example 7, 4-{4-Chloro-3-[3,3,3-trifluoro-2-hydroxy-1-methyl-2-(4-methyl-3-oxo-3,4-dihydro-2H-benzo[1,4]oxazin-6-yl)-propyl]-phenoxy}-benzoic acid methyl ester] the figure was 11.1 nM. With `C[C@@H](c1cc(Oc2ccc(C(=O)O)cc2)ccc1Cl)[C@](O)(c1ccc2c(c1)N(C)C(=O)CO2)C(F)(F)F` (relative stereo) [Example 8, 4-{4-Chloro-3-[3,3,3-trifluoro-2-hydroxy-1-methyl-2-(4-methyl-3-oxo-3,4-dihydro-2H-benzo[1,4]oxazin-6-yl)-propyl]-phenoxy}-benzoic acid] the figure was 10.8 nM; with `COC(=O)c1ccc(Oc2ccc(Cl)c([C@H](C)[C@](O)(c3ccc4c(c3)N(C)C(=O)CO4)C(F)(F)F)c2)cc1Cl` (relative stereo) [Example 9, 2-Chloro-4-{4-chloro-3-[3,3,3-trifluoro-2-hydroxy-1-methyl-2-(4-methyl-3-oxo-3,4-dihydro-2H-benzo[1,4]oxazin-6-yl)-propyl]-phenoxy}-benzoic acid methyl ester], 8.9 nM. With `C[C@@H](c1cc(Oc2ccc(C(=O)O)c(Cl)c2)ccc1Cl)[C@](O)(c1ccc2c(c1)N(C)C(=O)CO2)C(F)(F)F` (relative stereo) [Example 10, 2-Chloro-4-{4-chloro-3-[3,3,3-trifluoro-2-hydroxy-1-methyl-2-(4-methyl-3-oxo-3,4-dihydro-2H-benzo[1,4]oxazin-6-yl)-propyl]-phenoxy}-benzoic acid] the figure was 3.7 nM; with `C[C@@H](c1cc(Oc2ccc(F)c(C(=O)O)c2)ccc1Cl)[C@](O)(c1ccc2c(c1)N(C)C(=O)CO2)C(F)(F)F` (relative stereo) [Example 11, 5-{4-Chloro-3-[3,3,3-trifluoro-2-hydroxy-1-methyl-2-(4-methyl-3-oxo-3,4-dihydro-2H-benzo[1,4]oxazin-6-yl)-propyl]-phenoxy}-2-fluoro-benzoic acid], 2.4 nM; with `C[C@@H](c1cc(Oc2cccc(CC(=O)O)c2)ccc1Cl)[C@](O)(c1ccc2c(c1)N(C)C(=O)CO2)C(F)(F)F` (relative stereo) [Example 12, (3-{4-Chloro-3-[3,3,3-trifluoro-2-hydroxy-1-methyl-2-(4-methyl-3-oxo-3,4-dihydro-2H-benzo[1,4]oxazin-6-yl)-propyl]-phenoxy}-phenyl)-acetic acid], 8 nM.

As to `COC(=O)c1ccc(Oc2ccc(Cl)c([C@H](C)[C@](O)(c3ccc4c(c3)N(C)C(=O)CO4)C(F)(F)F)c2)cc1F` (relative stereo) [Example 13, 4-{4-Chloro-3-[3,3,3-trifluoro-2-hydroxy-1-methyl-2-(4-methyl-3-oxo-3,4-dihydro-2H-benzo[1,4]oxazin-6-yl)-propyl]-phenoxy}-2-fluoro-benzoic acid methyl ester], the inhibitory constant (Ki) is 5.4 nM. With `C[C@@H](c1cc(Oc2ccc(C(=O)O)c(F)c2)ccc1Cl)[C@](O)(c1ccc2c(c1)N(C)C(=O)CO2)C(F)(F)F` (relative stereo) [Example 14, 4-{4-Chloro-3-[3,3,3-trifluoro-2-hydroxy-1-methyl-2-(4-methyl-3-oxo-3,4-dihydro-2H-benzo[1,4]oxazin-6-yl)-propyl]-phenoxy}-2-fluoro-benzoic acid] the figure was 3.9 nM; with `C[C@@H](c1cc(Oc2ccc(Cl)c(C(=O)O)c2)ccc1Cl)[C@](O)(c1ccc2c(c1)N(C)C(=O)CO2)C(F)(F)F` (relative stereo) [Example 15, 2-Chloro-5-{4-chloro-3-[3,3,3-trifluoro-2-hydroxy-1-methyl-2-(4-methyl-3-oxo-3,4-dihydro-2H-benzo[1,4]oxazin-6-yl)-propyl]-phenoxy}-benzoic acid], 3.7 nM; with `C[C@@H](c1cc(Oc2ccc(C(=O)O)cc2F)ccc1Cl)[C@](O)(c1ccc2c(c1)N(C)C(=O)CO2)C(F)(F)F` (relative stereo) [Example 16, 4-{4-Chloro-3-[3,3,3-trifluoro-2-hydroxy-1-methyl-2-(4-methyl-3-oxo-3,4-dihydro-2H-benzo[1,4]oxazin-6-yl)-propyl]-phenoxy}-3-fluoro-benzoic acid], 2.5 nM. With `C[C@@H](c1cc(-c2ccc(C(=O)O)cc2)ccc1Cl)[C@](O)(c1ccc2c(c1)N(C)C(=O)CO2)C(F)(F)F` (relative stereo) [Example 17, 4′-Chloro-3′-[3,3,3-trifluoro-2-hydroxy-1-methyl-2-(4-methyl-3-oxo-3,4-dihydro-2H-benzo[1,4]oxazin-6-yl)-propyl]-biphenyl-4-carboxylic acid] the figure was 55.6 nM; with `C[C@@H](c1cc(-c2cccc(C(=O)O)c2)ccc1Cl)[C@](O)(c1ccc2c(c1)N(C)C(=O)CO2)C(F)(F)F` (relative stereo) [Example 18, 4′-Chloro-3′-[3,3,3-trifluoro-2-hydroxy-1-methyl-2-(4-methyl-3-oxo-3,4-dihydro-2H-benzo[1,4]oxazin-6-yl)-propyl]-biphenyl-3-carboxylic acid], 609 nM.
